In the supplement of paper PMC11451515:

Tested on: NOMO1
Assay: cell viability relative to DMSO control; higher = less cytotoxic
Settings: 48 h
Outline: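 Viability, reported as a per-plate percentage of DMSO wells with cell-free wells as background, came from CellTiter-Glo One luminescence. Reading took place after 48 h at 37°C. Before that, NOMO1 or SEM (500 cells/well) or P12-Ichikawa (1000 cells/well) leukemia cells, adapted for at least four passages in each medium, were seeded in 1536-well plates (5 μl) and pin-dosed with library compounds in DMSO, 47 μM to 0.79 nM over 11 threefold points.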

[1] = HPLM + 10% dialyzed FBS, 0.000781 µM
[2] = HPLM + 10% dialyzed FBS, 0.00234 µM
[3] = HPLM + 10% dialyzed FBS, 0.00702 µM
[4] = HPLM + 10% dialyzed FBS, 0.0211 µM
[5] = HPLM + 10% dialyzed FBS, 0.0632 µM
[6] = HPLM + 10% dialyzed FBS, 0.19 µM
[7] = HPLM + 10% dialyzed FBS, 0.569 µM
[8] = HPLM + 10% dialyzed FBS, 1.71 µM
[9] = HPLM + 10% dialyzed FBS, 5.12 µM
[10] = HPLM + 10% dialyzed FBS, 15.4 µM
[11] = HPLM + 10% dialyzed FBS, 46.1 µM
[12] = RPMI 5 mM glucose + 10% FBS, 0.000781 µM
[13] = RPMI 5 mM glucose + 10% FBS, 0.00234 µM
[14] = RPMI 5 mM glucose + 10% FBS, 0.00702 µM
[15] = RPMI 5 mM glucose + 10% FBS, 0.0211 µM
[16] = RPMI 5 mM glucose + 10% FBS, 0.0632 µM
[17] = RPMI 5 mM glucose + 10% FBS, 0.19 µM
[18] = RPMI 5 mM glucose + 10% FBS, 0.569 µM
[19] = RPMI 5 mM glucose + 10% FBS, 1.71 µM
[20] = RPMI 5 mM glucose + 10% FBS, 5.12 µM
[21] = RPMI 5 mM glucose + 10% FBS, 15.4 µM
[22] = RPMI 5 mM glucose + 10% FBS, 46.1 µM
[23] = RPMI 5 mM glucose + 10% dialyzed FBS, 0.000781 µM
[24] = RPMI 5 mM glucose + 10% dialyzed FBS, 0.00234 µM
[25] = RPMI 5 mM glucose + 10% dialyzed FBS, 0.00702 µM
[26] = RPMI 5 mM glucose + 10% dialyzed FBS, 0.0211 µM
[27] = RPMI 5 mM glucose + 10% dialyzed FBS, 0.0632 µM
[28] = RPMI 5 mM glucose + 10% dialyzed FBS, 0.19 µM
[29] = RPMI 5 mM glucose + 10% dialyzed FBS, 0.569 µM
[30] = RPMI 5 mM glucose + 10% dialyzed FBS, 1.71 µM
[31] = RPMI 5 mM glucose + 10% dialyzed FBS, 5.12 µM
[32] = RPMI 5 mM glucose + 10% dialyzed FBS, 15.4 µM
[33] = RPMI 5 mM glucose + 10% dialyzed FBS, 46.1 µM

Structure (SMILES)	cell viability [1]	cell viability [2]	cell viability [3]	cell viability [4]	cell viability [5]	cell viability [6]	cell viability [7]	cell viability [8]	cell viability [9]	cell viability [10]	cell viability [11]	cell viability [12]	cell viability [13]	cell viability [14]	cell viability [15]	cell viability [16]	cell viability [17]	cell viability [18]	cell viability [19]	cell viability [20]	cell viability [21]	cell viability [22]	cell viability [23]	cell viability [24]	cell viability [25]	cell viability [26]	cell viability [27]	cell viability [28]	cell viability [29]	cell viability [30]	cell viability [31]	cell viability [32]	cell viability [33]
COc1ccc(-c2nc3cc(C4=NNC(=O)CC4C)ccc3[nH]2)cc1 (centres undefined)	104%	117%	107%	103%	110%	119%	112%	123%	119%	119%	126%	91.5%	102%	100%	108%	117%	118%	109%	114%	102%	117%	118%	116%	110%	111%	105%	110%	118%	104%	111%	116%	110%	120%
C[C@H]1CCC/C=C/C2C[C@H](O)C[C@H]2[C@H](O)/C=C/C(=O)O1 (some centres undefined)	4.93%	15.8%	26.7%	7.07%	5.05%	5.57%	5.16%	4.43%	3.51%	3.39%	2.94%	5.4%	7%	5.78%	5.27%	5.07%	4.51%	4.27%	3.98%	1.66%	1.88%	3.46%	79.5%	6.02%	10%	5.74%	4.22%	4.83%	4.29%	3.43%	2.6%	2.61%	2.61%
CC(C)c1ccc2oc3nc(N)c(C(=O)O)cc3c(=O)c2c1												121%	121%	128%	137%	136%	128%	123%	134%	133%	130%	122%											
CNC(=O)c1cc(Oc2ccc(NC(=O)Nc3cc(C(C)(C)C)nn3-c3ccc4ncccc4c3)c(F)c2)ccn1	123%	121%	121%	128%	127%	170%	135%	155%	157%	156%	122%												119%	124%	125%	140%	151%	154%	160%	158%	155%	164%	123%
NC/1=N/C(=O)N(/C=C1)[C@H]2CC[C@@H](CO)O2	76%	106%	107%	103%	97.5%	101%	107%	92.1%	82.8%	82.2%	14.2%	75.6%	91.3%	85.7%	96.4%	87.1%	92.3%	85.7%	89.2%	91%	93.1%	8.01%	70.8%	94.6%	92.2%	98.5%	101%	105%	108%	95.9%	74%	88.7%	6.05%
O=P(O)(O)C(O)(Cc1cccnc1)P(=O)(O)[O][Na] (centres undefined)	71.5%	102%	98.3%	33%	107%	97.2%	119%	116%	116%	102%	106%	85.3%	93.6%	90.8%	22.8%	90.7%	85%	93%	84.7%	83.7%	85.9%	86.6%	76.4%	80.2%	82.8%	25.2%	88.2%	93.5%	103%	92.6%	97.6%	93.6%	106%
CC1=C(C)C2=C(S1)[N]3C(=NN=C3[C@H](CC(=O)OC(C)(C)C)/N=C2/C4=CC=C(Cl)C=C4)C	104%	97.6%	92%	102%	96.1%	70.7%	28.9%	52.4%	15.7%	10.5%	10.1%	88.2%	99.2%	96.4%	88.4%	86.2%	81.8%	27.3%	50.5%	12.1%	10.6%	11.1%	101%	97.5%	92.5%	87.7%	96.8%	81.9%	29.5%	55.3%	11.7%	10.6%	10.5%
COc1cc(N2CCC(N3CCN(C)CC3)CC2)ccc1Nc1ncnc(Nc2ccccc2[S+](=O)([O-])C(C)C)n1	92.5%	92.9%	95.9%	111%	65%	123%	144%	117%	102%	54.4%	31%	110%	103%	113%	119%	88%	117%	115%	108%	110%	62.5%	43.2%	87.6%	87.7%	91.9%	89.3%	69.1%	107%	123%	114%	109%	58.3%	34.5%
O=C(Oc1ccc([N+](=O)[O-])cc1)N1CCN(Cc2cccc(Oc3ccccc3)c2)CC1	115%	110%	112%	113%	113%	126%	104%	126%	120%	102%	122%	95.6%	101%	112%	113%	113%	123%	110%	105%	110%	109%	112%	93.9%	98.5%	103%	99.8%	99.9%	98.3%	103%	114%	104%	112%	105%
CN(C)[C@H]\1[C@@H]2[C@@H](O)[C@@H]\3C(=C)C4=C(C(=CC=C4)O)C(=O)C3=C(\O)[C@@]2(O)C(=O)\C(=C1O)C(N)=O	130%	120%	122%	128%	135%	110%	111%	127%	103%	107%	121%												127%	119%	121%	121%	116%	112%	121%	125%	111%	124%	123%
c1cc(OCCN2CCCCC2)cc(-c2n[nH]c3ccc(-c4nc[nH]n4)cc23)c1	116%	120%	129%	127%	137%	103%	127%	127%	114%	122%	100%	115%	115%	113%	105%	103%	122%	112%	111%	103%	104%	109%	99.5%	97.1%	101%	108%	101%	109%	114%	105%	111%	101%	109%
N/C(=N\C(=O)c1nc(Cl)c(N)nc1N)NCc1ccccc1	81%	99.5%	90.7%	118%	108%	108%	109%	109%	97.6%	76.2%	36.9%	80.5%	92.8%	83.7%	88.3%	93.5%	89%	99%	87.8%	92.8%	72.4%	28.5%	83.1%	97%	96.2%	90.8%	104%	100%	107%	111%	87.4%	84.2%	49.1%
O=C1[O][Pt]2([NH]C3CCCCC3[NH]2)[O]C1=O (centres undefined)	116%	118%	119%	107%	141%	118%	131%	120%	90.2%	14.7%	7.1%	108%	103%	120%	119%	110%	135%	115%	107%	90.4%	17.6%	5.82%	107%	108%	100%	110%	109%	122%	108%	112%	98.4%	38.3%	9.17%
C=C1C[C@@]2(O)O[C@@]3(C[C@H]2C(C)C)[C@@H](C)CC[C@@H]13	120%	94.8%	122%	133%	121%	134%	114%	117%	134%	132%	111%	108%	114%	122%	126%	136%	119%	121%	122%	130%	119%	135%	114%	125%	118%	109%	117%	122%	98.1%	102%	121%	102%	124%
CC1=C(/C=C/C(C)=C/C=C/C(C)=C/C(=O)Nc2ccc(O)cc2)C(C)(C)CCC1	63.6%	82.3%	97.9%	102%	87.5%	81.5%	94.6%	80.6%	53.6%	25.9%	4.95%	72.4%	85.1%	74.5%	96.5%	91%	79.9%	95%	78.8%	63%	34%	4.45%	78%	76.4%	77.8%	92.9%	90.9%	89.7%	86%	85.5%	55.8%	23.6%	3.24%
CNC(=O)c1c(F)cccc1Nc1nc(Nc2cc3c(cc2OC)CCN3C(=O)CN(C)C)nc2[nH]ccc12	89.3%	118%	99.9%	122%	111%	88.7%	87.2%	76.5%	58.8%	62%	6.14%	110%	118%	128%	106%	112%	117%	115%	113%	116%	117%	27.7%	107%	111%	105%	126%	117%	112%	108%	103%	99.2%	102%	23.6%
